Key:
Rattus norvegicus [1] = species on record: Rattus norvegicus; experiment: Toxicity in Sprague-Dawley rat assessed as catalepsy at 10 times MED assessed as time required to reach peak effect; assay type: organism-based; settings: in vivo
Rattus norvegicus [2] = experiment: Antipsychotic activity in ip dosed Sprague-Dawley rat assessed as suppression of conditioned avoidance response after 30 mins; assay type: functional
Rattus norvegicus [3] = experiment: Antipsychotic activity in ip dosed Sprague-Dawley rat assessed as protection against epinephrine-induced mortality administered 1 hr prior to epinephrine-challenge measured up to 24 hrs; assay type: functional
Rattus norvegicus [4] = experiment: Antipsychotic activity in ip dosed Sprague-Dawley rat assessed as inhibition of amphetamine-induced stereotyped-behavior administered 15 mins post amphetamine-challenge measured for 4 hrs; assay type: functional; settings: for minimal effective dose: read-out: MED
Rattus norvegicus [5] = experiment: Relative adrenolytic potency, ratio of ED50 for protection against epinephrine-induced mortality in ip dosed Sprague-Dawley rat to MED for suppression of conditioned avoidance response in ip dosed Sprague-Dawley rat; assay type: functional
Rattus norvegicus [6] = species on record: Rattus norvegicus; experiment: Toxicity in Sprague-Dawley rat assessed as catalepsy at 10 times MED after 1 to 24 hrs relative to control; assay type: organism-based; settings: in vivo
Rattus norvegicus [7] = experiment: Ratio of MED for inhibition of amphetamine-induced stereotyped-behavior in ip dosed Sprague-Dawley rat to ED50 for suppression of conditioned avoidance response in ip dosed Sprague-Dawley rat; assay type: functional

Row | Compound | Time (Rattus norvegicus [1]) | ED50 (Rattus norvegicus [2]; 0.5 h) | ED50 (Rattus norvegicus [3]) | inhibition (Rattus norvegicus [4]) | minimal effective dose (Rattus norvegicus [4]) | Ratio (Rattus norvegicus [5]) | %max (Rattus norvegicus [6]) | Ratio (Rattus norvegicus [7]) | ED50 (Rattus norvegicus [2]) | MED (Rattus norvegicus [4])
1 | Cl.O[C@]1(c2cccc(F)c2)CCN2C[C@@H]3c4ccccc4CCc4cccc(c43)[C@H]2C1 (racemic) | 4 h | 7 mg/kg | 14.3 mg/kg | Dose-dependent effect | 5 mg/kg | 2.9 | 100% |  |  | 
2 | COc1ccc([C@@]2(O)CCN3C[C@@H]4c5ccccc5CCc5cccc(c54)[C@H]3C2)cc1.Cl (racemic) | 6 h | 5.8 mg/kg | 13.2 mg/kg | Dose-dependent effect | 2.5 mg/kg | 5.3 | 83% | 0.43 |  | 
3 | Butaclamol |  |  | 15 mg/kg |  |  | 24 |  | 1 | 0.64 mg/kg | 0.63 mg/kg
4 | Cl.O[C@]1(c2ccco2)CCN2C[C@@H]3c4ccccc4CCc4cccc(c43)[C@H]2C1 (racemic) | 4 h | 6.7 mg/kg | 82 mg/kg | Dose-dependent effect | 5 mg/kg | 16.4 | 83% |  |  | 
5 | COc1ccc([C@@]2(O)CCN3C[C@@H]4c5ccccc5CCc5cccc(c54)[C@H]3C2)cc1OC.Cl (racemic) | 4 h | 6 mg/kg | 1.1 mg/kg | Dose-dependent effect | 5 mg/kg | 0.22 | 100% |  |  | 
6 | COc1ccc([C@@]2(O)CCN3C[C@@H]4c5ccccc5CCc5cccc(c54)[C@H]3C2)c(OC)c1.Cl (racemic) | 6 h | 16 mg/kg | 18 mg/kg | Dose-dependent effect | 10 mg/kg | 1.8 | 44% |  |  | 
7 | Cl.O[C@]1(c2ccccc2)CCN2C[C@@H]3c4ccccc4CCc4cccc(c43)[C@H]2C1 (racemic) | 6 h | 3 mg/kg | 5.5 mg/kg | Dose-dependent effect | 2.5 mg/kg | 2.2 | 32% |  |  | 
8 | CSc1ccc2c(c1)N(CCC1CCCCN1C)c1ccccc1S2 (stereo unspecified) [THIORIDAZINE] |  |  |  |  |  |  |  | 1 |  | 
9 | COc1ccccc1[C@@]1(O)CCN2C[C@@H]3c4ccccc4CCc4cccc(c43)[C@H]2C1.Cl (racemic) | 4 h | 0.92 mg/kg | 4 mg/kg | Dose-dependent effect | 0.63 mg/kg | 6.3 | 89% |  |  | 
10 | OCCN1CCN(CCCN2c3ccccc3Sc3ccc(C(F)(F)F)cc32)CC1 [FLUPHENAZINE] |  |  |  |  |  |  |  | 1 |  | 
11 | Cl.O[C@]1(c2cccnc2)CCN2C[C@@H]3c4ccccc4CCc4cccc(c43)[C@H]2C1 (racemic) | 4 h | 1 mg/kg | 4.7 mg/kg | Dose-dependent effect | 5 mg/kg | 0.94 | 94% |  |  | 
12 | Cl.O[C@]1(Cc2ccccc2)CCN2C[C@@H]3c4ccccc4CCc4cccc(c43)[C@H]2C1 (racemic) |  |  | > 40 mg/kg | Dose-dependent effect | > 20 mg/kg |  |  |  |  | 
13 | CN(C)CCCN1c2ccccc2Sc2ccc(Cl)cc21 [CHLORPROMAZINE] |  |  |  |  |  |  |  | 1 |  | 
14 | Cl.O[C@]1(c2ccc(Br)cc2)CCN2C[C@@H]3c4ccccc4CCc4cccc(c43)[C@H]2C1 (racemic) | 4 h | 14 mg/kg | 6.9 mg/kg | Dose-dependent effect | 20 mg/kg | 0.35 | 72% |  |  | 
15 | Cl.O[C@]1(c2ccsc2)CCN2C[C@@H]3c4ccccc4CCc4cccc(c43)[C@H]2C1 (racemic) | 6 h | 8 mg/kg | 90 mg/kg | Dose-dependent effect | 5 mg/kg | 18 | 93% |  |  | 
16 | Cl.O[C@]1(c2ccccc2C(F)(F)F)CCN2C[C@@H]3c4ccccc4CCc4cccc(c43)[C@H]2C1 (racemic) | 6 h | 22.2 mg/kg | > 20 mg/kg | Dose-dependent effect | 10 mg/kg | >2 | 100% | 0.45 |  | 
17 | Cl.O[C@]1(c2cccs2)CCN2C[C@@H]3c4ccccc4CCc4cccc(c43)[C@H]2C1 (racemic) | 6 h | 5.6 mg/kg | 22 mg/kg | Dose-dependent effect | 2.5 mg/kg | 8.8 | 100% | 0.45 |  | 
18 | Cl.O[C@]1(c2ccccc2Cl)CCN2C[C@@H]3c4ccccc4CCc4cccc(c43)[C@H]2C1 (racemic) | 4 h | 3.3 mg/kg | 11 mg/kg | Dose-dependent effect | 2.5 mg/kg | 4.4 | 100% |  |  | 
19 | Cc1ccccc1[C@@]1(O)CCN2C[C@@H]3c4ccccc4CCc4cccc(c43)[C@H]2C1.Cl (racemic) | 4 h | 3.3 mg/kg | 6.4 mg/kg | Dose-dependent effect | 1.25 mg/kg | 5.1 | 61% | 0.38 |  | 
20 | O=C(CCCN1CCC(O)(c2ccc(Cl)cc2)CC1)c1ccc(F)cc1 [HALOPERIDOL] |  |  |  |  |  |  |  | 1 |  | 
21 | COc1cccc([C@@]2(O)CCN3C[C@@H]4c5ccccc5CCc5cccc(c54)[C@H]3C2)c1.Cl (racemic) | 6 h | 1.4 mg/kg | 2.7 mg/kg | Dose-dependent effect | 1.25 mg/kg | 2.2 | 83% |  |  | 
